Assay results reported in US20250129430A1, “HIGH ATP-AFFINITY PROTEIN AS THERAPEUTIC TARGET FOR INTRACTABLE CANCER MOLECULAR SUBTYPES AND INHIBITOR THEREOF” (VeraVerse Co., Ltd., priority 2021, published 2025).

Experiments:
Assay in all cases: Cell viability drug screen, 12-point dose-response AUC
Assay type in all cases: cell-based, human
[1] = test system: MKN28; settings: MKN28 cells, 72 hours
How it was run: (§1)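 AUC comes from 12-point half-log dose–response curves, normalized to DMSO-treated cells and integrated trapezoidally, repeats averaged. Luminescent viability read after 72 h compound exposure at 37 °C; cells plated 5×10^3 per well 24 h before dosing.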

[2] = test system: SNU601; settings: SNU601 cells, 72 hours
How it was run: as §1

[3] = test system: SNU638; settings: SNU638 cells, 72 hours
How it was run: as §1

[4] = test system: SK4; settings: 72 hours; for Average Area Under the Viability Curve (AUC), AUC norm value: SK4 cells (SEM subtype)
How it was run: as §1

[5] = test system: KATO3; settings: KATO3 cells, 72 hours
How it was run: as §1

[6] = test system: Hs746T; settings: 72 hours; for Average Area Under the Viability Curve (AUC), AUC norm value: Hs746T cells (SEM subtype)
How it was run: as §1

[7] = test system: MKN45; settings: 72 hours; for Average Area Under the Viability Curve (AUC), AUC norm value: MKN45 cells (non-SEM subtype)
How it was run: (§2)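 Viability: luminescence (Glo kit, 15 min RT), normalized to 0.5% DMSO vehicle. Dosing: half-log, 12 concentrations, 72 h. Cells: 5×10^3/well, treated 24 h after plating. Value: trapezoidal AUC, mean of repeats.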

[8] = test system: SNU216; settings: 72 hours; for Average Area Under the Viability Curve (AUC), AUC norm value: SNU216 cells (non-SEM subtype)
How it was run: as §2

[9] = test system: OCUM1; settings: OCUM1 cells, 72 hours
How it was run: as §1

[10] = test system: SNU719; settings: SNU719 cells, 72 hours
How it was run: as §2

[11] = test system: NCC59; settings: NCC59 cells, 72 hours
How it was run: as §1

[12] = test system: AGS; settings: 72 hours; for Average Area Under the Viability Curve (AUC), AUC norm value: AGS cells (non-SEM subtype)
How it was run: as §2

[13] = test system: NCC20; settings: NCC20 cells, 72 hours
How it was run: as §1

[14] = test system: YCC11; settings: 72 hours; for Average Area Under the Viability Curve (AUC), AUC norm value: YCC11 cells (SEM subtype)
How it was run: as §1

[15] = test system: SNU1967; settings: SNU1967 cells, 72 hours
How it was run: as §1

[16] = test system: SNU620; settings: SNU620 cells, 72 hours
How it was run: as §1

[17] = test system: SNU1; settings: SNU1 cells, 72 hours
How it was run: as §1

[18] = test system: SNU1750; settings: 72 hours; for Average Area Under the Viability Curve (AUC), AUC norm value: SNU1750 cells (SEM subtype)
How it was run: as §1

[19] = test system: SNU668; settings: 72 hours; for Average Area Under the Viability Curve (AUC), AUC norm value: SNU668 cells (SEM subtype)
How it was run: as §1

[20] = test system: NCI_N87; settings: NCI_N87 cells, 72 hours
How it was run: as §1

[21] = test system: MKN74; settings: MKN74 cells, 72 hours
How it was run: as §2

[22] = test system: NCC24; settings: NCC24 cells, 72 hours
How it was run: as §1

[23] = test system: SNU484; settings: 72 hours; for Average Area Under the Viability Curve (AUC), AUC norm value: SNU484 cells (SEM subtype)
How it was run: as §1

[24] = test system: YCC3; settings: YCC3 cells, 72 hours
How it was run: as §1

[25] = test system: YCC2; settings: YCC2 cells, 72 hours
How it was run: as §1

[26] = test system: SNU16; settings: SNU16 cells, 72 hours
How it was run: as §1

[27] = test system: MKN1; settings: MKN1 cells, 72 hours
How it was run: as §1

[28] = test system: NCC19; settings: NCC19 cells, 72 hours
How it was run: as §1

[29] = test system: FU97; design: Average Area Under the Viability Curve (AUC), AUC norm value: scale not given here; settings: FU97 cells, 72 hours
How it was run: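 Trapezoidal AUC of a 12-point, DMSO-normalized dose-response curve. Luminescent viability was measured after 72 h of exposure at 37° C to half-log serial dilutions (0.5% DMSO control), dosed 24 h after plating FU97 cells at 5×10^3 per well.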

SMILES: CC[C@@H]1C(=O)N(C)c2cnc(Nc3ccc(C(=O)NC4CCN(C)CC4)cc3OC)nc2N1C1CCCC1 [BI 2536]
- Average Area Under the Viability Curve (AUC), AUC norm value [1]: −1.69
- Average Area Under the Viability Curve (AUC), AUC norm value [2]: 0.0215
- Average Area Under the Viability Curve (AUC), AUC norm value [3]: 0.1863
- Average Area Under the Viability Curve (AUC), AUC norm value [4]: −1.128
- Average Area Under the Viability Curve (AUC), AUC norm value [5]: 4.704
- Average Area Under the Viability Curve (AUC), AUC norm value [6]: 1.951
- Average Area Under the Viability Curve (AUC), AUC norm value [7]: 0.09661
- Average Area Under the Viability Curve (AUC), AUC norm value [8]: 2.038
- Average Area Under the Viability Curve (AUC), AUC norm value [9]: 2.226
- Average Area Under the Viability Curve (AUC), AUC norm value [10]: 3.291
- Average Area Under the Viability Curve (AUC), AUC norm value [11]: 3.556
- Average Area Under the Viability Curve (AUC), AUC norm value [12]: −1.22
- Average Area Under the Viability Curve (AUC), AUC norm value [13]: 0.5722
- Average Area Under the Viability Curve (AUC), AUC norm value [14]: −0.3817
- Average Area Under the Viability Curve (AUC), AUC norm value [15]: 0.0237
- Average Area Under the Viability Curve (AUC), AUC norm value [16]: −1.078
- Average Area Under the Viability Curve (AUC), AUC norm value [17]: −1.064
- Average Area Under the Viability Curve (AUC), AUC norm value [18]: −0.8076
- Average Area Under the Viability Curve (AUC), AUC norm value [19]: −0.4211
- Average Area Under the Viability Curve (AUC), AUC norm value [20]: −1.006
- Average Area Under the Viability Curve (AUC), AUC norm value [21]: −0.6584
- Average Area Under the Viability Curve (AUC), AUC norm value [22]: −0.8832
- Average Area Under the Viability Curve (AUC), AUC norm value [23]: 0
- Average Area Under the Viability Curve (AUC), AUC norm value [24]: 3.315
- Average Area Under the Viability Curve (AUC), AUC norm value [25]: −0.1875
- Average Area Under the Viability Curve (AUC), AUC norm value [26]: 0.02031
- Average Area Under the Viability Curve (AUC), AUC norm value [27]: −0.2123
- Average Area Under the Viability Curve (AUC), AUC norm value [28]: 3.475
- Average Area Under the Viability Curve (AUC), AUC norm value [29]: −0.4841

SMILES: Cc1ccc(C(=O)N(CCCN)[C@@H](c2oc3cc(Cl)ccc3c(=O)c2Cc2ccccc2)C(C)C)cc1 [SB 743921]
- area under the viability curve (AUC), normalized ([1]; 12-point dose-response): −1.699
- area under the viability curve (AUC), normalized ([2]; 12-point dose-response): −1.703
- area under the viability curve (AUC), normalized ([3]; 12-point dose-response): −0.2572
- area under the viability curve (AUC), normalized ([4]; SK4 cells, 12-point dose-response): −0.9769
- area under the viability curve (AUC), normalized ([5]; 12-point dose-response): 3.189
- area under the viability curve (AUC), normalized ([6]; Hs746T cells, 12-point dose-response): 1.359
- area under the viability curve (AUC), normalized ([7]; MKN45 cells, 12-point dose-response): 2.818
- area under the viability curve (AUC), normalized ([8]; SNU216 cells, 12-point dose-response): 2.438
- area under the viability curve (AUC), normalized ([9]; 12-point dose-response): 1.653
- area under the viability curve (AUC), normalized ([10]; 12-point dose-response): 2.115
- area under the viability curve (AUC), normalized ([11]; 12-point dose-response): 2.285
- area under the viability curve (AUC), normalized ([12]; AGS cells, 12-point dose-response): −2.366
- area under the viability curve (AUC), normalized ([13]; 12-point dose-response): −1.288
- area under the viability curve (AUC), normalized ([14]; YCC11 cells, 12-point dose-response): −1.353
- area under the viability curve (AUC), normalized ([15]; 12-point dose-response): 0.8572
- area under the viability curve (AUC), normalized ([16]; 12-point dose-response): −2.366
- area under the viability curve (AUC), normalized ([17]; 12-point dose-response): −0.9587
- area under the viability curve (AUC), normalized ([18]; SNU1750 cells, 12-point dose-response): 0.00014
- area under the viability curve (AUC), normalized ([19]; SNU668 cells, 12-point dose-response): 0
- area under the viability curve (AUC), normalized ([20]; 12-point dose-response): −1.205
- area under the viability curve (AUC), normalized ([21]; 12-point dose-response): 0.00599
- area under the viability curve (AUC), normalized ([22]; 12-point dose-response): −2.238
- area under the viability curve (AUC), normalized ([23]; SNU484 cells, 12-point dose-response): −1.3076
- area under the viability curve (AUC), normalized ([24]; 12-point dose-response): 2.421
- area under the viability curve (AUC), normalized ([25]; 12-point dose-response): 0.2048
- area under the viability curve (AUC), normalized ([26]; 12-point dose-response): −1.454
- area under the viability curve (AUC), normalized ([27]; 12-point dose-response): −1.406
- area under the viability curve (AUC), normalized ([28]; 12-point dose-response): 1.296
- area under the viability curve (AUC), normalized ([29]; 12-point dose-response): 0.8407

SMILES: CC[C@@H]1C(=O)N(C)c2cnc(Nc3ccc(C(=O)N[C@H]4CC[C@H](N5CCN(CC6CC6)CC5)CC4)cc3OC)nc2N1C(C)C [BI6727 (Volasertib), Volasertib]
- Average Area Under the Viability Curve (AUC), AUC norm value [1]: −1.335
- Average Area Under the Viability Curve (AUC), AUC norm value [2]: 0.4757
- Average Area Under the Viability Curve (AUC), AUC norm value [3]: 0.3626
- Average Area Under the Viability Curve (AUC), AUC norm value [4]: −0.9263
- Average Area Under the Viability Curve (AUC), AUC norm value [5]: 3.3921
- Average Area Under the Viability Curve (AUC), AUC norm value [6]: 2.378
- Average Area Under the Viability Curve (AUC), AUC norm value [7]: 0.5875
- Average Area Under the Viability Curve (AUC), AUC norm value [8]: 1.868
- Average Area Under the Viability Curve (AUC), AUC norm value [9]: 2.405
- Average Area Under the Viability Curve (AUC), AUC norm value [10]: 3.74
- Average Area Under the Viability Curve (AUC), AUC norm value [11]: 3.198
- Average Area Under the Viability Curve (AUC), AUC norm value [12]: −1.0975
- Average Area Under the Viability Curve (AUC), AUC norm value [13]: 0.5594
- Average Area Under the Viability Curve (AUC), AUC norm value [14]: −0.7997
- Average Area Under the Viability Curve (AUC), AUC norm value [15]: −0.1645
- Average Area Under the Viability Curve (AUC), AUC norm value [16]: −0.4098
- Average Area Under the Viability Curve (AUC), AUC norm value [17]: −0.487
- Average Area Under the Viability Curve (AUC), AUC norm value [18]: −0.5962
- Average Area Under the Viability Curve (AUC), AUC norm value [19]: 0.1516
- Average Area Under the Viability Curve (AUC), AUC norm value [20]: −0.3929
- Average Area Under the Viability Curve (AUC), AUC norm value [21]: −0.01134
- Average Area Under the Viability Curve (AUC), AUC norm value [22]: −0.9502
- Average Area Under the Viability Curve (AUC), AUC norm value [23]: −0.03282
- Average Area Under the Viability Curve (AUC), AUC norm value [24]: 3.488
- Average Area Under the Viability Curve (AUC), AUC norm value [25]: −0.09826
- Average Area Under the Viability Curve (AUC), AUC norm value [26]: 0
- Average Area Under the Viability Curve (AUC), AUC norm value [27]: −0.162
- Average Area Under the Viability Curve (AUC), AUC norm value [28]: 3.256
- Average Area Under the Viability Curve (AUC), AUC norm value [29]: 0.3078
